In brackets after ≈: the same amount, converted by molar mass.
Target: T1, Mannose-6-phosphate isomerase (Homo sapiens, UniProt P34949)
T1 sequence (P34949 whole entry): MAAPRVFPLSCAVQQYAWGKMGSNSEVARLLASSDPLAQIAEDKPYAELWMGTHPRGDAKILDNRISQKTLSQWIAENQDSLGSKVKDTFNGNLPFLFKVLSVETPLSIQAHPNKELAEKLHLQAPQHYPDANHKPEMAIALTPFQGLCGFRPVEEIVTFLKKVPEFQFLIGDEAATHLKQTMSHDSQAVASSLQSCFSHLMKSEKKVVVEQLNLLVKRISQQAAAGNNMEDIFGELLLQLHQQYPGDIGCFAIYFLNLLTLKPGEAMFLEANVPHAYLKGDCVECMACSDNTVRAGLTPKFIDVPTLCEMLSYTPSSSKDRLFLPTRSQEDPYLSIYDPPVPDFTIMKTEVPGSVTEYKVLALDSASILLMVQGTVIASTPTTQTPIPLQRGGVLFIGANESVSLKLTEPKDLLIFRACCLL
Test: Compound was tested for inhibition of human phosphomannose isomerase (PMI); call rule not given here

`O=CC(O)C(O)COP(=O)(O)O` (centres undefined) showed an IC50 of 100 µM.

Target: T1, Mannose-6-phosphate isomerase
Test: Compound was evaluated for the inhibition constant against human phosphomannose isomerase (huPMI)

With `O=C(CCCSc1ccc(Cl)c(Cl)c1)NC1(C(=O)NO)Cc2ccccc2C1` the Ki was 26 µM.

Test system: Saccharomyces cerevisiae
Test: Compound was evaluated for the minimum inhibitory concentration against Saccharomyces cerevisiae
Assay type: functional

In the case of `O=C(CCCSc1ccc(Cl)c(Cl)c1)NC1(C(=O)NO)Cc2ccccc2C1`, the MIC is reported as 80 µM (≈ 35.1 µg/mL).

Target: not listed separately
Test: Compound was tested for inhibition of porcine phosphomannose isomerase (PMI)
Set-up: species or system Sus scrofa

With `O=CC(O)C(O)COP(=O)(O)O` (centres undefined) the IC50 was 100 µM.

Test system: Saccharomyces cerevisiae
Test: Compound was evaluated for the minimum inhibitory concentration against Invsc 1, a wild type strain of Saccharomyces cerevisiae
Assay type: functional

In the case of `O=C(CCCSc1ccc(Cl)c(Cl)c1)NC1(C(=O)NO)Cc2ccccc2C1`, the MIC is reported as 100 µM (≈ 43.9 µg/mL).

Target: Mannose-6-phosphate isomerase (Saccharomyces cerevisiae) (UniProt P29952)
Test: Compound was evaluated for the inhibition of yeast phosphomannose isomerase (PMI) at a concentration of 300 uM; inactive

Chain of Mannose-6-phosphate isomerase (Saccharomyces cerevisiae) (P29952 whole entry, looked up): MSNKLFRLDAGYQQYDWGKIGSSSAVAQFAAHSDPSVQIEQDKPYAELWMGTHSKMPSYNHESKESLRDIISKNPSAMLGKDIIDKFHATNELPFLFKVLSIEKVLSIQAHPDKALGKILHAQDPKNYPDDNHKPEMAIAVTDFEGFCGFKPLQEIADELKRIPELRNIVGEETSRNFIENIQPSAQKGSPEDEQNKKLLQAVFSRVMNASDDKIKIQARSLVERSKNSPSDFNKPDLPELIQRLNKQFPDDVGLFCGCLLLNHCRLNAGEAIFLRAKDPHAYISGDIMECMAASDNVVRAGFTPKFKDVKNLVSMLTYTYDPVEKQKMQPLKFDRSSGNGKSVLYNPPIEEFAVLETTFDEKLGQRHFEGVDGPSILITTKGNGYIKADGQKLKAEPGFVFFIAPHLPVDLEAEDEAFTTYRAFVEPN

For `O=C(CCCOc1ccc(Cl)cc1Cl)NC1(C(=O)NO)CCc2ccccc21` (centres undefined), the IC50 was “Not Active”.

Test system: Candida albicans
Test: Compound was evaluated for the minimum inhibitory concentration against Candida albicans
Assay type: functional

With `O=C(CCCSc1ccc(Cl)c(Cl)c1)NC1(C(=O)NO)Cc2ccccc2C1` the MIC was 100 µM (≈ 43.9 µg/mL).

Target: T2, Mannose-6-phosphate isomerase (Candida albicans (strain SC5314 / ATCC MYA-2876) (Yeast), UniProt P34948)
T2 sequence (P34948 whole entry): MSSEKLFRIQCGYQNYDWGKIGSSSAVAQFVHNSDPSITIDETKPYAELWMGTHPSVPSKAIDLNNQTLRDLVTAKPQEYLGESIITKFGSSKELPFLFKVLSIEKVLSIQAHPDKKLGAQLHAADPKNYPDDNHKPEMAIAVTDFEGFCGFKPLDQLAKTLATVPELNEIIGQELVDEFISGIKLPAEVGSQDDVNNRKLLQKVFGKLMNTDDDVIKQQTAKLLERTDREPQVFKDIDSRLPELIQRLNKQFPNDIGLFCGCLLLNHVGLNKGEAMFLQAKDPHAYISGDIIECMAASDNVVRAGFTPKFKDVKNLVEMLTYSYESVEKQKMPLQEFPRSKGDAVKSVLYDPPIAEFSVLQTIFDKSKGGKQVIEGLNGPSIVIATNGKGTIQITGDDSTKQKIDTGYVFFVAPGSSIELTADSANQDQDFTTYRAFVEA
Test: Inhibition of phosphomannose isomerase enzyme of Candida albicans (CaPMI)

`COC(=O)C1(NC(=O)CCCOc2ccc(Cl)c(Cl)c2)Cc2cc3ccccc3cc2C1` and `COC(=O)C1(NC(=O)CCCOc2ccc(Cl)c(Cl)c2)Cc2ccc3ccccc3c2C1` (centres undefined) cannot be ordered by IC50: greater than 200 µM for the first, greater than 200 µM for the second.

Compared with `NC(=O)C1(NC(=O)CCCSc2ccc(Cl)cc2Cl)Cc2ccccc2C1`, `NC(=O)C1(NC(=O)CCCSc2ccc(Cl)c(Cl)c2)Cc2ccccc2C1` is 2.3-fold lower in IC50: 14 µM for the first, 6 µM for the second.

`O=C(CCCOc1ccc(Cl)cc1Cl)NC1(C(=O)NO)Cc2ccccc2C1` and `NNC(=O)C1(NC(=O)CCCOc2ccc(Cl)cc2Cl)Cc2ccccc2C1` are within 1.5-fold of each other in IC50: 39 µM for the first, 40 µM for the second.

First: O=C(CCCOc1ccc(Cl)cc1Cl)NC1(CO)Cc2ccccc2C1
Second: O=C(CCCOc1ccc(Cl)cc1Cl)NC1(C(=O)O)Cc2ccccc2C1
The IC50 of the first is lower: 140 µM for the first, greater than 500 µM for the second. The first is the more potent here.

First: NC(=O)C1(NC(=O)CCCNc2ccc(Cl)c(Cl)c2)Cc2ccccc2C1
Second: NC(=O)C1(NC(=O)CCCNc2ccc(Cl)cc2Cl)Cc2ccccc2C1
The IC50 of the first is 2.4-fold lower: 21 µM for the first, 50 µM for the second. The first is the more potent here.

Compared with `NC(=O)C1(NC(=O)CCCOc2ccc(Cl)cc2Cl)CCc2ccccc21` (centres undefined), `NC(=O)C1(NC(=O)CCCOc2ccc(Cl)cc2Cl)CCc2ccccc2C1` (centres undefined) is lower in IC50: greater than 200 µM for the first, 93 µM for the second. The second is the more potent here.

`COC(=O)C1(NC(=O)CCCOc2ccc(Cl)cc2Cl)Cc2ccccc2C1` and `CNC(=O)C1(NC(=O)CCCOc2ccc(Cl)cc2Cl)Cc2ccccc2C1` are the same in IC50: 34 µM for the first, 34 µM for the second.

`O=C(CCCOc1ccc(Cl)cc1Cl)NC1Cc2ccccc2C1` and `NC(=O)C1Cc2ccccc2CN1C(=O)CCCOc1ccc(Cl)cc1Cl` (centres undefined) cannot be ordered by IC50: greater than 200 µM for the first, greater than 200 µM for the second.

Compared with `NC(=O)C1(NC(=O)CCCOc2ccc(Cl)c(Cl)c2)Cc2ccccc2C1`, `Cc1cc(OCCCC(=O)NC2(C(N)=O)Cc3ccccc3C2)ccc1Cl` is 3.3-fold higher in IC50: 15 µM for the first, 50 µM for the second. The first is the more potent here.

`CC(Cc1ccccc1)(NC(=O)CCCOc1ccc(Cl)cc1Cl)C(N)=O` (centres undefined) and `NC(=O)C1(NC(=O)CCCOc2ccc(Cl)cc2Cl)CCCC1` cannot be ordered by IC50: greater than 200 µM for the first, greater than 200 µM for the second.

Going from `NC(=O)C1(NC(=O)CCCOc2cc(Cl)c(Cl)cc2Cl)Cc2ccccc2C1` to `COC(=O)c1ccc2c(c1)CC(NC(=O)CCCOc1ccc(Cl)c(Cl)c1)(C(=O)OC)C2` (centres undefined), the IC50 rises from 30 µM to greater than 200 µM. The first is the more potent here.

— ChEMBL document CHEMBL1130944, “Exploring structure-activity relationships around the phosphomannose isomerase inhibitor AF14049 via combinatorial synthesis” (Bioorg Med Chem Lett, 1998)
